One may read the Kd as the equilibrium constant for the complex coming apart.

Data on 18 compounds can be found in US20110263507A1 (priority 2007, published 2011).

Each structure is given as a SMILES string. Where “and” joins values, the source holds several entries; their conditions need not be identical. Equal entries are not always repeated. Where two headings read alike, the source gives them in different places. Where a SMILES comes first, the peptide text is derived from it. [ ]: non-standard residue; d: D form. dOrn = NCCC[C@@H](N)C(=O)O; Orn = NCCC[C@H](N)C(=O)O Bounds are passed on as bounds.

The target of one assay is T1, hNTS2 (Homo sapiens, UniProt O95665).
T1 construct: expressed in transfected cells; host or cells: CHO-K1
T1 sequence (O95665 whole entry): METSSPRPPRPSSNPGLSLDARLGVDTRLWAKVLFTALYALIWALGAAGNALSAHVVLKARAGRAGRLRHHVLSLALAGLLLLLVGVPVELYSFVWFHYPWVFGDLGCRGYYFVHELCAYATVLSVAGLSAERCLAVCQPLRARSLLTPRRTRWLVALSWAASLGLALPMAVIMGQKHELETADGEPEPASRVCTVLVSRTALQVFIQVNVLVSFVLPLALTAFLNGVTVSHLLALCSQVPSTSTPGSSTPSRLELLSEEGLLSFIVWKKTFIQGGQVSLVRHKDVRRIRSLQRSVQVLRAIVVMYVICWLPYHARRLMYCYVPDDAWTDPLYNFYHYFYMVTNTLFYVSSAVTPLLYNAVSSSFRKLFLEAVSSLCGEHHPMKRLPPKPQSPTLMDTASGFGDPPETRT
The assay can be described thus: Radioligand competition binding with [3H]NT, membranes of CHO-K1 cells expressing hNTS2. The following applies: for hNTS2 Selectivity: hNTS2 over hNTS1; for higher affinity at hNTS2 than the corresponding JMV peptide at mNTS2: NT33 vs JMV 510, NT51 vs JMV 509. In general terms: Displacement assays read how much labelled ligand stays bound in the presence of the test substance.

A further assay deals with T2, hNTS1 (Homo sapiens, UniProt P30989).
T2 construct: expressed in transfected cells; host or cells: CHO-K1
T2 sequence (P30989 whole entry): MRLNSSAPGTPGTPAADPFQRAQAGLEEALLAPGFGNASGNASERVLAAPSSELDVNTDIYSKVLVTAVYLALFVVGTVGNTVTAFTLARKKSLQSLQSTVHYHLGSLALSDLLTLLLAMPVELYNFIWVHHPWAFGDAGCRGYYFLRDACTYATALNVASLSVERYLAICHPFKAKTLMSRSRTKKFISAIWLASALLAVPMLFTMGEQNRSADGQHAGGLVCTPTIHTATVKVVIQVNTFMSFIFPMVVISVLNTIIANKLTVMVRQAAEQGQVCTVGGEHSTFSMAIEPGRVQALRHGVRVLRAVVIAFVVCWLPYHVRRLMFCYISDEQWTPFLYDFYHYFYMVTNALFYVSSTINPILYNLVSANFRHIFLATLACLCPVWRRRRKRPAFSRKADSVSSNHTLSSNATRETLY
The assay can be described thus: Radioligand competition binding with [3H]NT, membranes of CHO-K1 cells expressing hNTS1. The following applies: for hNTS1 Selectivity: Table 2, hNTS1 over hNTS2. As to the method:
CHO-K1 cells that had been stably transfected separately with the hNTS1 or hNTS2 genes were cultured in 150 mm (500 cm^2) Petri plates with 35 ml of Dulbecco's modified Eagle's medium containing 100 μM minimal essential medium nonessential amino acids (Life Technologies, Inc.) supplemented with 5% (v/v) FetalClone II bovine serum product (Hyclone Labs, Logan, Utah). […] The cellular pellet (in Tris-HCl buffer) was stored at […] until the radioligand binding was performed.
For use in binding assays, crude membrane preparations were prepared by centrifugation of the cellular pellet at 35,600×g for 10 min. The supernatant was decanted and discarded, and the cellular pellet was resuspended in 1 ml of Tris-HCl buffer followed by homogenization with a Brinkmann Polytron at setting 5.5 for 15 s. Centrifugation was repeated as above, the supernatant was decanted and discarded, and the cellular pellet was resuspended in 1 ml of Tris-HCl buffer followed by homogenization. Centrifugation was repeated a third time, the supernatant was discarded, and the final cellular pellet was suspended in 0.5-2.5 ml of Tris-HCl buffer. Protein concentration of the membrane preparation was estimated by the method of Lowry et al. using bovine serum albumin as a standard.
Incubation was at 20° C. for 40 min. The assay was routinely terminated by addition of ice-cold 0.9% NaCl (5×1.5 ml), followed by rapid filtration through a GF/B filter strip that had been pretreated with 0.2% or 2% polyethyleneimine. Details of binding assays have been described previously. […] Data were analyzed using the LIGAND program.

[1] abbreviates: Table 2, read-out: hNTS2 Geometric Mean ∀ SEM (equilibrium dissociation constant Kd).
Where [2] appears, read: read-out: hNTS1 Geometric Mean ∀ SEM (equilibrium dissociation constant Kd).

Method for hNTS2: CHO-K1 cells that had been stably transfected separately with the hNTS1 or hNTS2 genes were cultured in 150 mm (500 cm^2) Petri plates with 35 ml of Dulbecco's modified Eagle's medium containing 100 μM minimal essential medium nonessential amino acids (Life Technologies, Inc.) supplemented with 5% (v/v) FetalClone II bovine serum product (Hyclone Labs, Logan, Utah). CHO cells (subculture 7-15) were harvested at confluence by aspiration of the medium, followed by a wash with ice-cold 50 mM Tris-HCl buffer, pH=7.4, which was discarded, resuspension in 5-15 ml of Tris-HCl, scraping the cells with a plastic spatula into a centrifuge tube, and collection of cells by centrifugation at 300×g for 5 min at 4° C., in a GPR centrifuge (Beckman Instruments, Fullerton, Calif.). The cellular pellet (in Tris-HCl buffer) was stored at −180° C. until the radioligand binding was performed.
Incubation was at 20° C. for 40 min. The assay was routinely terminated by addition of ice-cold 0.9% NaCl (5×1.5 ml), followed by rapid filtration through a GF/B filter strip that had been pretreated with 0.2% or 2% polyethyleneimine. […] Data were analyzed using the LIGAND program.
Curves were generated using the LIGAND program. […] Data are the means of duplicate determinations and are representative results from one of at least three independent experiments.

On to `CC[C@H](C)[C@H](NC(=O)[C@H](Cc1ccc(O)cc1)NC(=O)[C@@H]1CCCN1C(=O)[C@H](CCCNC(=N)N)NC(=O)[C@H](N)CCCCN)C(=O)N[C@@H](CC(C)C)C(=O)O` [NT02, [D-Lys^8]NT(8-13)] (H-[dK]RPYIL-OH; N-terminus and C-terminus assumed), for which the “hNTS2 Selectivity” value on hNTS2 (Table 2) was determined as 0.2. Moreover, the Kd on hNTS2 (setting [1]) was found to be 4.6 ± 0.5 nM. The “hNTS1 Selectivity” value on hNTS1 was determined as 4.6.
In the case of `CC[C@H](C)[C@H](NC(=O)[C@H](Cc1ccc(O)cc1)NC(=O)[C@@H]1CCCN1C(=O)[C@@H](CCCCN)NC(=O)[C@@H](N)CCCNC(=N)N)C(=O)N[C@@H](CC(C)C)C(=O)O` [NT03, [D-Lys^9]NT(8-13)] (H-R[dK]PYIL-OH; N-terminus and C-terminus assumed), the affinity at hNTS2, expressed as Kd, was 280 ± 30 nM. Moreover, on hNTS2 (Table 2), the “hNTS2 Selectivity” value is given as 2.5. Further, at hNTS1, the Kd stood at 690 ± 30 nM and the “hNTS1 Selectivity” value is on record as 0.4.
For `CC[C@H](C)[C@H](NC(=O)[C@H](Cc1ccc(O)cc1)NC(=O)[C@@H]1CCCN1C(=O)[C@H](CCCCN)NC(=O)[C@H](N)CCCNC(=N)N)C(=O)N[C@@H](CC(C)C)C(=O)O` [NT15, [D-Arg^8,L-Lys^9]NT(8-13)] (H-[dR]KPYIL-OH; N-terminus and C-terminus assumed), in that order: 18 ± 2 nM, 0.2, 3.5 ± 0.5 nM and 4.0.
As for `CC[C@H](C)[C@H](NC(=O)[C@H](Cc1ccc(O)cc1)NC(=O)[C@@H]1CCCN1C(=O)[C@@H](CCCNC(=N)N)NC(=O)[C@@H](N)CCCCN)C(=O)N[C@@H](CC(C)C)C(=O)O` [NT16, [L-Lys^8,D-Arg^9]NT(8-13)] (H-K[dR]PYIL-OH; N-terminus and C-terminus assumed), the “hNTS2 Selectivity” value on hNTS2 (Table 2) was 0.8. Also, the Kd on hNTS2 (setting [1]) amounted to 39.6 ± 0.6 nM; at hNTS1 (setting [2]), 33 ± 6 nM. On hNTS1, the “hNTS1 Selectivity” value is listed as 1.2.
Regarding `CC[C@H](C)[C@H](NC(=O)[C@H](Cc1ccc(O)cc1)NC(=O)[C@@H]1CCCN1C(=O)[C@H](CCCCN)NC(=O)[C@@H](N)CCCCN)C(=O)N[C@@H](CC(C)C)C(=O)O` [NT19, [L-Lys^8,L-Lys^9]NT(8-13)], at hNTS2, the affinity, expressed as Kd, was 2.4 ± 0.3 nM.
Still for that read-out and setting: to `CC[C@H](C)[C@H](NC(=O)[C@H](Cc1ccc(O)cc1)NC(=O)[C@@H]1CCCN1C(=O)[C@@H](CCCCN)NC(=O)[C@H](N)CCCCN)C(=O)N[C@@H](CC(C)C)C(=O)O` [NT20, [D-Lys^8,D-Lys^9]NT(8-13)] belongs 730 ± 60 nM.
Consider `CC[C@H](C)[C@H](NC(=O)[C@H](Cc1ccc(O)cc1)NC(=O)[C@@H]1CCCN1C(=O)[C@H](CCCNC(=N)N)NC(=O)[C@@H](N)CCCN)C(=O)N[C@@H](CC(C)C)C(=O)O` [NT21, [L-Orn^8]NT(8-13)] (H-[Orn]RPYIL-OH; N-terminus and C-terminus assumed), for which, at hNTS2 (Table 2), the “hNTS2 Selectivity” value is recorded as 0.2. In addition, the dissociation constant Kd at hNTS2 (setting [1]) came out at 2.2 ± 0.1 nM; at hNTS1 (setting [2]), 0.41 ± 0.03 nM. Also, the “hNTS1 Selectivity” value on hNTS1 is on record as 5.2.
For `CC[C@H](C)[C@H](NC(=O)[C@H](Cc1ccc(O)cc1)NC(=O)[C@@H]1CCCN1C(=O)[C@H](CCCNC(=N)N)NC(=O)[C@H](N)CCCN)C(=O)N[C@@H](CC(C)C)C(=O)O` [NT22, [D-Orn^8]NT(8-13)] (H-[dOrn]RPYIL-OH; N-terminus and C-terminus assumed), in that order: 0.3, 5.9 ± 0.2 nM, 1.9 ± 0.2 nM and 3.2.
With `CC[C@H](C)[C@H](NC(=O)[C@H](Cc1ccc(O)cc1)NC(=O)[C@@H]1CCCN1C(=O)[C@H](CCCN)NC(=O)[C@@H](N)CCCNC(=N)N)C(=O)N[C@@H](CC(C)C)C(=O)O` [NT23, [L-Orn^9]NT(8-13)] (H-R[Orn]PYIL-OH; N-terminus and C-terminus assumed), at hNTS2 (Table 2), the “hNTS2 Selectivity” value was determined as 0.6. Also, the Kd on hNTS2 (setting [1]) was 1.5 ± 0.1 nM; at hNTS1 (setting [2]) it was 0.94 ± 0.06 nM. For the same compound, the “hNTS1 Selectivity” value on hNTS1 amounted to 1.6.
On to `CC[C@H](C)[C@H](NC(=O)[C@H](Cc1ccc(O)cc1)NC(=O)[C@@H]1CCCN1C(=O)[C@@H](CCCN)NC(=O)[C@@H](N)CCCNC(=N)N)C(=O)N[C@@H](CC(C)C)C(=O)O` [NT24, [D-Orn^9]NT(8-13)] (H-R[dOrn]PYIL-OH; N-terminus and C-terminus assumed), for which the “hNTS2 Selectivity” value on hNTS2 (Table 2) is 0.2. In addition, the figures for the dissociation constant Kd at hNTS2 (setting [1]) and on hNTS1 (setting [2]) were 790 ± 20 nM and 120 ± 10 nM, respectively. At hNTS1, the “hNTS1 Selectivity” value is on record as 6.6.
On to `CC[C@H](C)[C@H](NC(=O)[C@H](Cc1ccc(O)cc1)NC(=O)[C@@H]1CCCN1C(=O)[C@H](CCCN)NC(=O)[C@@H](N)CCCN)C(=O)N[C@@H](CC(C)C)C(=O)O` [NT25, [L-Orn^8,L-Orn^9]NT(8-13)], for which, at hNTS2 (Table 2), the “hNTS2 Selectivity” value is recorded as 0.8. Moreover, the Kd at hNTS2 (setting [1]) came to 3.9 ± 0.2 nM; on hNTS1 (setting [2]), 3 ± 0.3 nM. For the same compound, the “hNTS1 Selectivity” value at hNTS1 is 1.3.
For `CC[C@H](C)[C@H](NC(=O)[C@H](Cc1ccc(O)cc1)NC(=O)[C@@H]1CCCN1C(=O)[C@@H](CCCN)NC(=O)[C@@H](N)CCCN)C(=O)N[C@@H](CC(C)C)C(=O)O` [NT26, [L-Orn^8,D-Orn^9]NT(8-13)], in that order: 0.3, 1082 ± 6 nM, 360 ± 40 nM and 3.0.
In the case of `CC[C@H](C)[C@H](NC(=O)[C@H](Cc1ccc(O)cc1)NC(=O)[C@@H]1CCCN1C(=O)[C@H](CCCN)NC(=O)[C@H](N)CCCN)C(=O)N[C@@H](CC(C)C)C(=O)O` [NT27, [D-Orn^8,L-Orn^9]NT(8-13)], the “hNTS2 Selectivity” value at hNTS2 (Table 2) is on record as 0.2. Further, the Kd amounted to 24 ± 2 nM at hNTS2 (setting [1]) and 3.6 ± 0.2 nM on hNTS1 (setting [2]). Also, on hNTS1, the “hNTS1 Selectivity” value is given as 6.6.
For the compound `CC[C@H](C)[C@H](NC(=O)[C@H](Cc1ccc2ccccc2c1)NC(=O)[C@@H]1CCCN1C(=O)[C@H](CCCNC(=N)N)NC(=O)[C@@H](N)CCCNC(=N)N)C(=O)N[C@@H](CC(C)C)C(=O)O` [NT33, [L-3,2-Nal^11]NT(8-13)], the “higher affinity at hNTS2 than the corresponding JMV peptide at mNTS2” value on hNTS2 was 12 fold. On hNTS2 (setting [1]), the dissociation constant (Kd) was determined as 18 ± 1 nM.
Consider `CC[C@H](C)[C@H](NC(=O)[C@@H]1Cc2ccccc2CN1C(=O)[C@@H]1CCCN1C(=O)[C@H](CCCNC(=N)N)NC(=O)[C@@H](N)CCCNC(=N)N)C(=O)N[C@@H](CC(C)C)C(=O)O` [NT47, [L-TIC^11]NT(8-13)], for which the Kd at hNTS2 (setting [1]) turned out to be 14 nM.
On the same count and under the same terms, for `CC[C@H](C)[C@H](NC(=O)[C@H]1Cc2ccccc2CN1C(=O)[C@@H]1CCCN1C(=O)[C@H](CCCNC(=N)N)NC(=O)[C@@H](N)CCCNC(=N)N)C(=O)N[C@@H](CC(C)C)C(=O)O` [NT48, [D-TIC^11]NT(8-13)] the value was 255 nM; for `CC[C@H](C)[C@H](NC(=O)[C@H](Cc1cccc2ccccc12)NC(=O)[C@@H]1CCCN1C(=O)[C@H](CCCNC(=N)N)NC(=O)[C@@H](N)CCCNC(=N)N)C(=O)N[C@@H](CC(C)C)C(=O)O` [NT49, [L-3,1-Nal^11]NT(8-13)], 1.28 ± 0.05 nM.
As for `CC[C@H](C)[C@H](NC(=O)[C@@H](Cc1ccc2ccccc2c1)NC(=O)[C@@H]1CCCN1C(=O)[C@H](CCCNC(=N)N)NC(=O)[C@@H](N)CCCNC(=N)N)C(=O)N[C@@H](CC(C)C)C(=O)O` [NT51, [D-3,2-Nal^11]NT(8-13)], the “decrease in affinity at NTS2 on changing from L- to D-3,2-Nal” value on hNTS2 (NT33 compared to NT51) is recorded as under 2 fold. Further, the “higher affinity at hNTS2 than the corresponding JMV peptide at mNTS2” value on hNTS2 is 28 fold and ~30 fold. For the same compound, the Kd on hNTS2 (text, read-out: Kd at hNTS2) was determined as 32.9 nM.
